Consider one sequence from PMC11161652, “ASXLs binding to the PHD2/3 fingers of MLL4 provides a mechanism for the recruitment of BAP1 to active enhancers” (Nature Communications, 2024).

Assay [1] concerns the target T1, MLL4PHD2/3 L256K (Homo sapiens, UniProt O14686, L256K).
T1 construct: MLL4 (aa 227-324); GST (N, cleaved yes); made in house; host or cells: E. coli BL21-CodonPlus
In words: NMR titration binding, L256K MLL4PHD2/3. As to conditions: 1H,15N HSQC, 0.1 mM protein, 20 mM Tris pH 6.8, 298 K. On the procedure:
(§1) All constructs were expressed in BL21-CodonPlus competent cells.
(§2) For NMR titration experiments, ^1H,^15N HSQC spectra of 0.1 mM uniformly ^15N-labeled WT or mutated MLL4PHD2/3, MLL3PHD2/3 or MLL3PHD4 were recorded while WT or mutated ASXL2 (aa 650-670, 650-664, 656-670) and ASXL3 (aa 1047-1067) peptides (synthesized by SynPeptide) or MLL3PHD2/3 were added stepwise. All experiments were carried out in 20 mM Tris buffer (pH 6.8), 150 mM NaCl, and 3 mM DTT, containing 7% D2O. The dissociation constants (Kds) were determined by a nonlinear least-squares analysis in GraphPad Prism using the equation:1 △δ=△δmaxL+P+Kd−L+P+Kd^2−4PL/2P where [L] is concentration of the peptide, [P] is concentration of the protein, Δδ is the observed chemical shift change, and Δδmax is the normalized chemical shift change at saturation. Normalized chemical shift changes were calculated using the equation Δδ=△δH^2+△sn/5^2 (2), where Δδ is the change in chemical shift in parts per million (ppm).

For assay [2], the target named is T2, MLL4PHD2/3 D285K (Homo sapiens, UniProt O14686, D285K).
T2 construct: MLL4 (aa 227-324); GST (N, cleaved yes); made in house; host or cells: E. coli BL21-CodonPlus
The assay is described as follows: NMR titration binding, D285K MLL4PHD2/3. The conditions noted are these: 1H,15N HSQC titration, 0.1 mM protein, 20 mM Tris pH 6.8, 150 mM NaCl, 3 mM DTT, 7% D2O, 298 K, mean ± SD, n = 3. On the procedure: as §1
Normalized chemical shift changes were calculated using the equation Δδ=△δH^2+△sn/5^2 (2), where Δδ is the change in chemical shift in parts per million (ppm).

Assay [3] has as its target T3, MLL3PHD2/3 D372K/D400K (Homo sapiens, UniProt Q8NEZ4, D372K/D400K).
T3 construct: human MLL3 (aa 342-439); GST (N, cleaved yes); made in house; host or cells: E. coli BL21-CodonPlus
In words: NMR titration binding, D372K/D400K MLL3PHD2/3. The conditions noted are these: 1H,15N HSQC titration, 0.1 mM protein, 20 mM Tris pH 6.8, 150 mM NaCl, 298 K. The procedure:
as §1, §2

Assay [4] concerns the target T4, MLL4PHD2/3 K274E (Homo sapiens, UniProt O14686, K274E).
T4 construct: MLL4 (aa 227-324); GST (N, cleaved yes); made in house; host or cells: E. coli BL21-CodonPlus
The assay is described as follows: NMR titration binding, K274E MLL4PHD2/3. As to conditions: 1H,15N HSQC titration, 0.1 mM protein, 20 mM Tris pH 6.8, 150 mM NaCl, 298 K. On the procedure: as §1, §2

In assay [5] the target is T5, MLL4PHD2/3 V290K (Homo sapiens, UniProt O14686, V290K).
T5 construct: MLL4 (aa 227-324); GST (N, cleaved yes); made in house; host or cells: E. coli BL21-CodonPlus
The assay is described as follows: NMR titration binding, V290K MLL4PHD2/3. As to conditions: 1H,15N HSQC titration, 0.1 mM protein, 20 mM Tris pH 6.8, 150 mM NaCl, 298 K. On the procedure:
as §1, §2

The target of assay [6] is T6, MLL4PHD2/3 D257K/D285K (Homo sapiens, UniProt O14686, D257K/D285K).
T6 construct: MLL4 (aa 227-324); GST (N, cleaved yes); made in house; host or cells: E. coli BL21-CodonPlus
The assay is described as follows: NMR titration binding, D257K/D285K MLL4PHD2/3. As to conditions: 1H,15N HSQC titration, 0.1 mM protein, 20 mM Tris pH 6.8, 150 mM NaCl, 298 K. On the procedure: as §1, §2

Ends that are not written are not given here.

T6 sequence (O14686 227-324 D257K/D285K): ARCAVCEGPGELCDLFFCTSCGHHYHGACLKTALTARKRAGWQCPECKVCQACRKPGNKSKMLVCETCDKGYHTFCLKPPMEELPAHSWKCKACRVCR
T1 sequence (O14686 227-324 L256K): as the sequence (O14686 227-324 D257K/D285K) above, with L30K, K31D, K59D counted along it
T3 sequence (Q8NEZ4 342-439 D372K/D400K): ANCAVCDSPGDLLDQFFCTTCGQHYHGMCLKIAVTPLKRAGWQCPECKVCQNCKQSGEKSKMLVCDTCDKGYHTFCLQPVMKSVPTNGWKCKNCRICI
T5 sequence (O14686 227-324 V290K): as the sequence (O14686 227-324 D257K/D285K) above, with K31D, K59D, V64K counted along it
T2 sequence (O14686 227-324 D285K): as the sequence (O14686 227-324 D257K/D285K) above, with K31D counted along it
T4 sequence (O14686 227-324 K274E): as the sequence (O14686 227-324 D257K/D285K) above, with K31D, K48E, K59D counted along it

In the case of NRTGARTLADIKAKAQLVKAQ [ASXL2 650-670], the Kd result in assay [1] is “unfolded”; in assay [2] it was 1700 µM; in assay [3], “no binding”; in assay [4] it was “no binding”; in assay [5], “no binding”; in assay [6], “no binding”.

Broadly, the Kd is a measure of binding affinity in units of concentration.
